Measured values as given in PMC5385520 (Scientific Reports, 2017).
Read-outs that look alike come from different tables or passages of the source.

Legend:
[1] = target: T1, hDDO (human D-aspartate oxidase) (Homo sapiens, UniProt Q99489); test: biochemical; design: gene DDO
T1 sequence (Q99489 1-341): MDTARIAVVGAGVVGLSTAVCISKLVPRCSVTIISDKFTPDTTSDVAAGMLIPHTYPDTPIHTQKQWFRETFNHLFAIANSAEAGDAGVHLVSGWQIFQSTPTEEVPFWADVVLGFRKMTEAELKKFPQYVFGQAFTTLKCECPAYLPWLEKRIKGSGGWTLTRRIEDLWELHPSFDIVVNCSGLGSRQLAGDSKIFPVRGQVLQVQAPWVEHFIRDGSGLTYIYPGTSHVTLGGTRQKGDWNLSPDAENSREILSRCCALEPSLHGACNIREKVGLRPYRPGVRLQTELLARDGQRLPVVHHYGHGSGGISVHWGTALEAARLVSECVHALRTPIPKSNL

[2] = target: T2, mDDO (mouse D-aspartate oxidase) (Mus musculus, UniProt Q922Z0); test: coupled HRP / Amplex UltraRed fluorescence assay; format: biochemical; details: D-Asp 7.5 mM; FAD 4 and 100 μM; inactive up to 300 μM
T2 construct: gene Ddo; recombinant
T2 sequence (Q922Z0 1-341): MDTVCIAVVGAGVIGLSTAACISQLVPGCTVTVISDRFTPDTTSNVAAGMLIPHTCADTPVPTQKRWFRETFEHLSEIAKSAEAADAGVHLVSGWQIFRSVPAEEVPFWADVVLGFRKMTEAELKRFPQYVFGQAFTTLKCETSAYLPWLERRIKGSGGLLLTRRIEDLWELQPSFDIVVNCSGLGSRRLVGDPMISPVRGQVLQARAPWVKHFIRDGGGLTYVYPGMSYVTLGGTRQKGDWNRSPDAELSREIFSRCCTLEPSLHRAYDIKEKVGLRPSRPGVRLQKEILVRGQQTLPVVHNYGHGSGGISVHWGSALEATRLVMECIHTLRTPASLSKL

[3] = target: T1, hDDO (human D-aspartate oxidase); test: coupled HRP / Amplex UltraRed fluorescence assay; format: biochemical; design: gene DDO; recombinant
[4] = read-out: Concentration (μM) / 100
[5] = read-out: Concentration (μM) / 1000

| Structure (SMILES) | activity at 1000 µM [3, 4] [%] | activity at 1000 µM [3, 5] [%] | other results |
| --- | --- | --- | --- |
| Cc1cc2c(s1)Nc1ccccc1N=C2N1CCN(C)CC1 [olanzapine] |  |  | IC50 [1]: 23.4 ± 1.6 µM |
| CN1CCN(C2=Nc3cc(Cl)ccc3Nc3ccccc32)CC1 [clozapine] | > 95 |  | coupled HRP / Amplex UltraRed fluorescence assay [2]: both mDDO and hDDO was unaffected by clozapine at all concentrations tested |
| CC(NC(C)(C)C)C(=O)c1cccc(Cl)c1 (stereo not drawn) [bupropion] |  | 89 |  |
| CN(C)CCCN1c2ccccc2Sc2ccc(Cl)cc21 [chlorpromazine] |  | > 90 |  |
| O=C(CCCN1CCC(O)(c2ccc(Cl)cc2)CC1)c1ccc(F)cc1 [haloperidol] | 100 |  |  |
